Test results as given in patent publication US5096924A, “Anticancer antibiotic MI43-37F11 substance” (501 Azidan Hojin Biseibutsu Kagaku Kenkyu Kai, priority 1989, dated 1992).

Experiments:
peritoneal macrophages [1] = assay: Activation of peritoneal macrophages (production of O2-); format: in vivo, CDF1 mice; settings: for Rate (%) of increase in production of O2^-: one day before harvest, control 100
Method: (3) Experiments for estimation of the activity of MI43-37F11 substance to activate peritoneal macrophages were conducted by the following procedure. Thus, one day before the harvest of the peritoneal macrophages, the antibiotic MI43-37F11 substance was intraperitoneally administered to CDF1 mice (8-week old, female, 3 mice in each group) at a dosage of 50 mg/kg, 12.5 mg/kg or 3.125 mg/kg. One day after the administration, the macrophages were harvested from the peritoneal cavity of the treated mice and placed into a culture medium present in a plastic dish (Falcone, No. 3002, […], a product of Decton Dikinson & Company) at the cell concentration of 1×10^6 cells/m(, followed by incubation of the macrophages. The incubated medium containing the macrophages was then added with 100 ng/ml of phorbol myristate acetate to elicite the macrophages for their production of O2 -. The amount of O2 - was determined by reductive reaction with cytochrome C. The control group of mice (untreated) received only intraperitoneal injection of physiological saline in place of the administration of MI43-37F11 substance before the harvest of the peritoneal macrophages was done. Assumed that the amount of O2 - as produced and liberated by the peritoneal macrophages which were harvested from the mice of the control group was amounting to 100, the rate of increase in the amount of O2 - as produced by the peritoneal macrophages of the mice of the treated group was evaluated. In other words, the rate (%) of increase in the production of O2 - by the peritoneal macrophages of the mice of the treated group was calculated according to the following equation; [formula] where T means the amount of O2^- produced by the peritoneal macrophages of the mice of the treated group and C means the amount of O2^- produced by the peritoneal macrophages of the control group (untreated).

peritoneal macrophages [2] = assay: Effect on phagocytosis of the peritoneal macrophages; format: in vivo, CDF1 mice; settings: for Rate (%) of Increase in phagocytic action of peritoneal macrophages: 3 days and one day before harvest, control 100
Method: (4) Experiments for estimation of the effect of the antibiotic MI43-37F11 substance on phagocytosis of the peritoneal macrophages were conducted by the following procedure. Thus, 3 days and one day before the harvest of the peritoneal macrophages, MI43-37F11 substance was intraperitoneally administered to CDF1 mice (female, 8-weeks old, 3 mice) at a dosage of 50 mg/kg, 5 mg/kg or 0.5 mg/kg. One day after the administration of MI43-37F11 substance, the peritoneal macrophages were harvested from the peritoneal cavity of the mice of the treated group of mice and then inoculated into a culture medium present in a plastic dish (Falcone) at the cell density of 5×10^5 cells/m(, followed by incubation of the macrophages. The incubated medium containing the macrophages was then added with 7.5×10^6 cells/ml of heat-treated yeast cells, followed by further incubation for a time. The macrophages were then fixed by addition of methanol and stained by Giemsa staining method. The number of the yeast cells which received the phagocytosis by 400 macrophages was counted. The control group of mice (untreated) received only intraperitoneal injection of physiological saline in place of the administration of MI43-37F11 substance, before the harvest of the peritoneal macrophages was done. Assumed that the number of the yeast cells which had received the phagocytosis by 400 macrophages as harvested from the mice of the control group was amounting to 100, the rate of increase in the phagocytic action of the peritoneal macrophages as harvested from the treated group of mice was evaluated. In other words, the rate (%) of increase in the phagocytic action of the peritoneal macrophages of the mice of the treated group was calculated according to the following equation: [formula] where T means the mumber of yeast cells having received the phagocytosis by 400 macrophages which were harvested from the treated group of mice, and C means the number of yeast cells having received the phagocytosis by 400 macrophages which were harvested from the control group of mice (untreated).

Compound: COc1cc(O)c2c(=O)oc(CO)cc2c1 [MI43-37F11 substance]
- Rate (%) of increase in production of O2^- (peritoneal macrophages [1]; 3.125 mg/kg i.p.): 105%
- Rate (%) of increase in production of O2^- (peritoneal macrophages [1]; 12.5 mg/kg i.p.): 127%
- Rate (%) of increase in production of O2^- (peritoneal macrophages [1]; 50 mg/kg i.p.): 255%
- increased production of O2- by peritoneal macrophages (peritoneal macrophages [1]; summary in words): effective
- Rate (%) of Increase in phagocytic action of peritoneal macrophages (peritoneal macrophages [2]; 0.5 mg/kg i.p.): 102%
- Rate (%) of Increase in phagocytic action of peritoneal macrophages (peritoneal macrophages [2]; 5 mg/kg i.p.): 80%
- Rate (%) of Increase in phagocytic action of peritoneal macrophages (peritoneal macrophages [2]; 50 mg/kg i.p.): 144%
- enhance the phagocytic action of the macrophages (peritoneal macrophages [2]; summary in words): effective
